Results published in patent US4203986A, “M-Trifluoro-methylphenyl-piperazine” (Metabio-Joullie, priority 1977, dated 1980).
Where two headings read alike, the source gives them in different places.

Legend:
[1] = Acute toxicity in Mice; assay type: in vivo, mice (SWISS, EOPS, NMRI/Han, female); details: for LD50 at 360 h / MTD at 360 h: mouse, in vivo; for LD50 at 360 h / LD 50: method of KARBER and BEHRENS; for MTD at 360 h: read-out: LD 0 (maximum dose tolerated); for LD 0 (maximum dose tolerated) / LD 50: 21600 min
Method: The compounds are administered in increasing doses (in arithmetic progression) to groups of five .female. SWISS, EOPS, NMRI/Han mice of the EVIC CEBA strain and having a mean weight of 22 g.
For intravenous administration the compounds are dissolved in distilled water, for oral administration they are suspended in 10% gum arabic solution (volume administered: 0.5 ml/22 g body weight).
The LD 50's are calculated according to the method of KARBER and BEHRENS (B.) (Arch. Exp. Path. Pharmakol. 1935, 177, 379-388).
For each administration method, there is indicated:
LD 0 or maximum dose tolerated.
LD 100 or minimum lethal dose.
The number of animals surviving in the different groups is definitively verified 15 days after administrating the compounds.

[2] = system: coughing induced by aqueous citric acid aerosol; assay: Antitussive action in the guinea pig (citric acid aerosol); assay type: in vivo; details: for antitussive activity (in words): oral; for inhibition in vivo at 22 mg/kg: 22 mg/kg p.o.
Excerpt: The technique used is that of SIECKMANN (W.) (in "Notions techniques de Pharmacologie generale" by Michel COLOT, page 75, Masson, Edit, 1972).
The guinea pigs .female. of mean weight 400 g, unanaesthesised, are subjected to the tussigenic effect of aerosols of a 7.5% aqueous citric acid solution. The animals are placed one by one in a cylindrical chamber having at its two extremities two canals, one serving as entrance for the aerosol and the other as its exit.
On the exit tube there is a lateral connection to a MERCURY gas pressure differential gauge joined to an RACIA counter. An adjustable screw clamp placed on the exit tube downstream of the lateral canal permits regulation of the sensitivity of the system such that the normal respiration of the animal only registers very weakly and that displacement of air in the chamber provoked by coughing attack is recorded clearly in the form of vertical traces.
Each guinea pig is first submitted to a control test for 5 minutes. One hour later it receives the test compound. It is replaced in the chamber for 5 minutes, 1 hour after oral administration of the compound.
The number of coughing attacks before and after administration is counted and the percentage inhibition is calculated.

[3] = system: coughing by stimulation of the superior larynx nerve; assay: Antitussive action in the cat (stimulation of the superior larynx nerve); assay type: in vivo; details: for effect on coughing in cats (in words): i.v.
Method: The cats all thriving, male or female of weight between 1.5 and 2.5 kg (test on 10 cats) are anaesthesised by nembutal at a dose of 30 mg/kg interperitoneally.
A cannula having three branches is placed in the trachea. Two of the branches are connected to a device for registering intratracheal pressure (MERCURY gas pressure gauge connected to an RACIA polygraph) The third branch allows elimination of part of the respiratory volume.
A cannula is placed in the femoral vein for administration of the test substances.
The stimulation parameters are as follows: frequency: 5 cycles per sec, amplitude: 5 millisec, voltage: 4 to 6 volts, duration: 15 to 45 sec. (according to the sensitivity of the animal).
There are carried a minimum of 3 stimulations spaced by 5 minutes and provoking coughing attacks of the same severity. The compound is then administered intravenously. The stimulation is then carried out every 5 minutes. If the compound reduces or suppresses the coughing the stimulation is continued until the reappearance of coughing to approximately the same degree as the initial coughing.
The results are expressed as a percentage reduction in the number of coughs.

[4] = Test on the cataleptic action in rats; assay type: in vivo; details: p.o., every 30 minutes for 6 hours
Method: (7) Test on the cataleptic action in rats (groups of 5 animals)
After administration p.o. of the test compounds, the degree of catalepsy is noted every 30 minutes for 6 hours by the test of crossing of the homolateral feet according to BOISSIER (J.R.) and SIMON (P.) (Therapy, 1963, 18, 1257-1277) and using the following notation:
0=animal which is not cataleptic
132 animal conserving position on one side only
2=animal conserving position on both sides

[5] = Cavia porcellus, po, 1 h, read-out: Percentages of inhibition of coughing

O=C(CN1CCN(c2cccc(C(F)(F)F)c2)CC1)CN1CCN(c2cccc(C(F)(F)F)c2)CC1 [LJ 1163]
LD 100 (minimum lethal dose) ([1]; intravenous administration): 22.5 mg/kg | LD50 at 360 h ([1]; iv, intravenous administration): 18 mg/kg | MTD at 360 h ([1]; iv, intravenous administration): 12.5 mg/kg | LD50 at 360 h ([1]; po, oral administration): 180 mg/kg | MTD at 360 h ([1]; po, oral administration): 125 mg/kg | LD 100 (minimum lethal dose) ([1]; oral administration): 250 mg/kg | inhibition in vivo at 9 mg/kg ([2]; Cavia porcellus, po, 1 h, 9 mg/kg p.o., read-out: Percentages of inhibition of coughing): 64% | inhibition in vivo at 18 mg/kg ([2]; Cavia porcellus, po, 1 h, 18 mg/kg p.o., read-out: Percentages of inhibition of coughing): 78% | antitussive activity (in words) [2]: also active if not more active than codeine | % maximum reduction in the number of coughs ([3]; 1.8 mg/kg i.v.): 50% | Delay in the disappearance of protective effect ([3]; 1.8 mg/kg i.v.): Fleeting | % maximum reduction in the number of coughs ([3]; 3.6 mg/kg i.v.): 62%

OCC(O)CN1CCN(c2ccc(F)c(C(F)(F)F)c2)CC1 (stereo not drawn) [LJ 1121, 3-[4-(3-Trifluoromethyl-4-fluorophenyl)-piperazino]propane-1,2-diol]
LD50 at 360 h ([1]; po, oral administration): 925 mg/kg | MTD at 360 h ([1]; po, oral administration): 500 mg/kg | LD 100 (minimum lethal dose) ([1]; oral administration): 1250 mg/kg

OC(CN1CCN(c2cccc(C(F)(F)F)c2)CC1)CN1CCN(c2cccc(C(F)(F)F)c2)CC1 [LJ 1145, 1,3-bis[4-(m-Trifluoromethylphenyl)-piperazino]-propan-2-ol]
LD 100 (minimum lethal dose) ([1]; oral administration): 1000 mg/kg | LD 0 (maximum dose tolerated) ([1]; oral administration): 200 mg/kg | LD 50 ([1]; oral administration): 580 mg/kg | inhibition in vivo at 58 mg/kg ([2]; Cavia porcellus, po, 1 h, 58 mg/kg p.o., read-out: Percentages of inhibition of coughing): 58%

OCC(O)CN1CCN(c2cccc(C(F)(F)F)c2)CC1 (stereo not drawn) [LJ 1142, 3-[4-(m-Trifluoromethylphenyl)-piperazino]-propane-1,2-diol]
LD 100 (minimum lethal dose) ([1]; intravenous administration): 300 mg/kg | LD50 at 360 h ([1]; iv, intravenous administration): 252 mg/kg | MTD at 360 h ([1]; iv, intravenous administration): 225 mg/kg | LD50 at 360 h ([1]; po, oral administration): 1120 mg/kg | MTD at 360 h ([1]; po, oral administration): 750 mg/kg | LD 100 (minimum lethal dose) ([1]; oral administration): 1500 mg/kg

OC(CN1CCN(c2ccc(F)c(C(F)(F)F)c2)CC1)CN1CCN(c2ccc(F)c(C(F)(F)F)c2)CC1 [LJ 1198, 1,3-bis[4-(3-Trifluoromethyl-4-fluorophenyl)-piperazino)-propan-2-ol]
LD50 at 360 h ([1]; po, oral administration): 225 mg/kg | MTD at 360 h ([1]; po, oral administration): 50 mg/kg | LD 100 (minimum lethal dose) ([1]; oral administration): 400 mg/kg | inhibition in vivo at 22 mg/kg [2, 5]: 50%

COc1ccc2c3c1O[C@H]1[C@@H](O)C=C[C@H]4[C@@H](C2)N(C)CC[C@@]341 [Codeine, reference compound]
inhibition in vivo at 35 mg/kg ([2]; Cavia porcellus, po, 1 h, 35 mg/kg p.o., read-out: Percentages of inhibition of coughing): 64% | inhibition in vivo at 70 mg/kg ([2]; Cavia porcellus, po, 1 h, 70 mg/kg p.o., read-out: Percentages of inhibition of coughing): 71% | % maximum reduction in the number of coughs ([3]; 3.5 mg/kg i.v.): 100%

OC(CN1CCN(c2cccc(C(F)(F)F)c2)CC1)CN1CCN(c2cccc(C(F)(F)F)c2)CC1 [LJ 1154, 1,3-bis[4-(m-Trifluoromethylphenyl)-piperazino]-propan-2-ol]
LD 100 (minimum lethal dose) ([1]; intravenous administration): 44 mg/kg | LD 0 (maximum dose tolerated) ([1]; intravenous administration): 25 mg/kg | LD 50 ([1]; intravenous administration): 37.5 mg/kg | LD 100 (minimum lethal dose) ([1]; oral administration): 200 mg/kg | LD 0 (maximum dose tolerated) ([1]; oral administration): 50 mg/kg | LD 50 ([1]; oral administration): 135 mg/kg | inhibition in vivo at 6.75 mg/kg ([2]; Cavia porcellus, po, 1 h, 6.75 mg/kg p.o., read-out: Percentages of inhibition of coughing): 66% | inhibition in vivo at 13.5 mg/kg ([2]; Cavia porcellus, po, 1 h, 13.5 mg/kg p.o., read-out: Percentages of inhibition of coughing): 78% | antitussive activity (in words) [2]: also active if not more active than codeine | % maximum reduction in the number of coughs ([3]; 4 mg/kg i.v.): 80% | % maximum reduction in the number of coughs ([3]; 8 mg/kg i.v.): 100% | effect on coughing in cats (in words) [3]: comparable with those of codeine

OCCN1CCN(c2ccc(F)c(C(F)(F)F)c2)CC1 [LJ 1195, 2-[4-(3-Trifluoromethyl-4-fluorophenyl)-piperazino]-ethanol]
LD50 at 360 h ([1]; po, oral administration): 844 mg/kg | MTD at 360 h ([1]; po, oral administration): 300 mg/kg | LD 100 (minimum lethal dose) ([1]; oral administration): 1250 mg/kg

OC1CCCCC1N1CCN(c2cccc(C(F)(F)F)c2)CC1 (stereo not drawn) [LJ 1143, 2-[4-(m-Trifluoromethylphenyl)-piperazino]-cyclohexanol]
LD 100 (minimum lethal dose) ([1]; intravenous administration): 81 mg/kg | LD50 at 360 h ([1]; iv, intravenous administration): 69 mg/kg | MTD at 360 h ([1]; iv, intravenous administration): 56 mg/kg | LD50 at 360 h ([1]; po, oral administration): 625 mg/kg | MTD at 360 h ([1]; po, oral administration): 250 mg/kg | LD 100 (minimum lethal dose) ([1]; oral administration): 1000 mg/kg

O=C1CCCCC1CN1CCN(c2ccc(F)c(C(F)(F)F)c2)CC1 (stereo not drawn) [LJ 1196, 2-[4-(3-Trifluoromethyl-4-fluorophenyl)-piperazino]-methyl-cyclohexanone]
LD50 at 360 h ([1]; po, oral administration): 937 mg/kg | MTD at 360 h ([1]; po, oral administration): 625 mg/kg | LD 100 (minimum lethal dose) ([1]; oral administration): 1250 mg/kg

OC(CN1CCN(c2cccc(C(F)(F)F)c2)CC1)CN1CCN(c2cccc(C(F)(F)F)c2)CC1 [LJ 1152, 1,3-bis[4-(m-Trifluoromethylphenyl)-piperazino]-propan-2-ol]
LD 100 (minimum lethal dose) ([1]; intravenous administration): 50 mg/kg | LD50 at 360 h ([1]; iv, intravenous administration): 36 mg/kg | MTD at 360 h ([1]; iv, intravenous administration): 25 mg/kg | LD 100 (minimum lethal dose) ([1]; oral administration): 375 mg/kg | LD 0 (maximum dose tolerated) ([1]; oral administration): 125 mg/kg | LD 50 ([1]; oral administration): 225 mg/kg | inhibition in vivo at 22 mg/kg [2, 5]: 64% | inhibition in vivo at 72 mg/kg ([2]; Cavia porcellus, po, 1 h, 72 mg/kg p.o., read-out: Percentages of inhibition of coughing): 75% | antitussive activity (in words) [2]: also active if not more active than codeine | % maximum reduction in the number of coughs ([3]; 3.6 mg/kg i.v.): 76% | % maximum reduction in the number of coughs ([3]; 7.2 mg/kg i.v.): 100% | effect on coughing in cats (in words) [3]: comparable with those of codeine

OC1CCCCC1CN1CCN(c2cccc(C(F)(F)F)c2)CC1 (stereo not drawn) [LJ 1161, 2-[4-(m-Trifluoromethylphenyl)-piperazino]-methyl-cyclohexanol]
LD 100 (minimum lethal dose) ([1]; intravenous administration): 87.5 mg/kg | LD50 at 360 h ([1]; iv, intravenous administration): 66 mg/kg | MTD at 360 h ([1]; iv, intravenous administration): 50 mg/kg | LD50 at 360 h ([1]; po, oral administration): 1500 mg/kg | MTD at 360 h ([1]; po, oral administration): 750 mg/kg | LD 100 (minimum lethal dose) ([1]; oral administration): 2000 mg/kg | cataleptic effect [4]: absence of cataleptic effect | inhibition in vivo at 150 mg/kg ([2]; Cavia porcellus, po, 1 h, 150 mg/kg p.o., read-out: Percentages of inhibition of coughing): 75%

O=C1CCCCCC1CN1CCN(c2cccc(C(F)(F)F)c2)CC1 (stereo not drawn) [LJ 1176, 2-[4-(m-Trifluoromethylphenyl)-piperazino]-methyl-cycloheptanone]
LD50 at 360 h ([1]; po, oral administration): 1950 mg/kg | MTD at 360 h ([1]; po, oral administration): 1500 mg/kg | LD 100 (minimum lethal dose) ([1]; oral administration): 2500 mg/kg | cataleptic effect [4]: absence of cataleptic effect | inhibition in vivo at 200 mg/kg ([2]; Cavia porcellus, po, 1 h, 200 mg/kg p.o., read-out: Percentages of inhibition of coughing): 78%
